Tested on: mRNA coding for SMR1 in the SMG
Assay: Regulation of the accumulation of mRNA coding for SMR1 in the SMG of the rat by androgens (RNA transfer and hybridization with SMR1 cDNA probe)
Assay type: in vivo, Wistar rats
Protocol: 10 weeks old male and female Wistar rats were obtained from Iffa-Credo. The androgens were removed by castration and 10 days later 35 mg of testosterone (Sterandryl retard, Roussel) were injected by the intraperitoneal route in the cases indicated. In the cases indicated, the same dose of testosterone was administered to female rats. 8 weeks old DBA/2 and “Swiss” mice were obtained from the Pasteur Institute.
The RNA was prepared from rat and mouse tissues as described in the literature (Tronik D. et al. 1987, EMBO J. 6, 983-987). The in vitro translation of the RNAs was carried out by using the mRNA-dependent translation system as a lysate in the presence of mRNA-dependent reticulocytes (Pelham H. RB et al., 1976, Eur. J. Biochem. 67, 247-256). The products were analysed by electrophoresis on a denaturing polyacrylamide-NaDodSO4 gel. […]
Furthermore, various amounts (as indicated in the figure) of RNA from the SMG of male rats and female rats were subjected to electrophoresis on a 2% agarose-formaldehyde gel, they were transferred to filters and hybridized with the cDNA probe coding for SMR1. […] As is apparent in part B, the mRNA coding for SMR1 accumulates in very large quantities in the SMG of male Wistar rats, since an amount as low as 1.5 ng of total RNA was sufficient to give a hybridization signal. […]

C[C@]12CC[C@H]3[C@@H](CCC4=CC(=O)CC[C@@]43C)[C@@H]1CC[C@@H]2O [testosterone]
accumulation of mRNA coding for SMR1 in the SMG (adult female rats, same dose (35 mg) of testosterone): caused the accumulation of mRNA coding for SMR1 in amounts similar to that observed in the males
amount of mRNA coding for SMR1 in the SMG (castrated male rats, 35 mg testosterone by the intraperitoneal route 10 days after castration): restored the amount of mRNA coding for SMR1 to the same value as that observed in the non-castrated males

Reference: patent US6916607B2, “PEPTIDES AND PO[…] FROM THE SU[…] OF THE RAT COR[…] […] COR[…] USES OF THESE PRODUCTS FOR DIAGNOSIS FOR DETECTION OR T[…]” (Institute Pasteur, priority 1988, dated 2005)
